The target in experiment [1] is 5-hydroxytryptamine receptor 1B (Homo sapiens, UniProt P28222). The experiment is described as follows: Displacement of [3H][…] from human recombinant 5-HT1B receptor expressed in HEK293 cells after 1 to […] by scintillation counting analysis. The experiment is classed as cell-based. For orientation: Loss of bound radioactivity is the signal in a displacement assay; it reports binding, not function.

Experiment [2] concerns the target T1, Sodium-dependent noradrenaline transporter (Homo sapiens, UniProt P23975). The experiment is described as follows: Displacement of [3H]Nisoxetine from human recombinant norepinephrine transporter expressed in HEK293 cells after 1 to […] by scintillation counting analysis. It is filed as cell-based.
In experiment [3] the target is Alpha-2C adrenergic receptor (Homo sapiens, UniProt P18825). The experiment is described as follows: Displacement of [3H]Clonidine from human recombinant adrenergic alpha2C receptor expressed in MDCK cells after 1 to […] by scintillation counting analysis. It is filed as cell-based.
In experiment [4] the target is Alpha-1B adrenergic receptor (Homo sapiens, UniProt P35368). Description: Displacement of [3H]Prazosin from human recombinant adrenergic alpha1B receptor expressed in HEK293 cells after 1 to […] by scintillation counting analysis. It is filed as cell-based.
Experiment [5] concerns the target Alpha-2B adrenergic receptor (Homo sapiens, UniProt P18089). Description: Displacement of [3H]Clonidine from human recombinant adrenergic alpha2B receptor expressed in HEK293T cells after 1 to […] by scintillation counting analysis. It is filed as cell-based, HEK-293T.
Experiment [6] is described as follows: Displacement of [3H]DTG from sigma 2 receptor in rat PC12 cells after 1 to […] by scintillation counting analysis. To be noted: pc-12. The experiment is classed as cell-based.
For experiment [7], the target named is Alpha-1A adrenergic receptor (Homo sapiens, UniProt P35348). The experiment is described as follows: Displacement of [3H]Prazosin from human recombinant adrenergic alpha1A receptor expressed in HEK293 cells after 1 to […] by scintillation counting analysis. The experiment is classed as cell-based.
Experiment [8] deals with D(3) dopamine receptor (Homo sapiens, UniProt P35462). Description: Displacement of [3H]N-methylspiperone from human recombinant dopamine D3 receptor expressed in HEK293 cells after 1 to […] by scintillation counting analysis. It is filed as cell-based.
Experiment [9] deals with D(2) dopamine receptor (Homo sapiens, UniProt P14416). Description: Displacement of [3H]N-methylspiperone from human recombinant dopamine D2 receptor expressed in HEK293 cells after 1 to […] by scintillation counting analysis. It is filed as cell-based.
Experiment [10] deals with T1, Sodium-dependent noradrenaline transporter. Description: Inhibition of [3H]norepinephrine uptake at human NET expressed in HEK293 cells preincubated for 10 mins prior to substrate addition measured after 4 mins by […]. It is filed as cell-based.
Experiment [11] deals with T2, 5-hydroxytryptamine receptor 2A (Homo sapiens, UniProt P28223). The experiment is described as follows: Displacement of [3H]Ketanserin from human recombinant 5-HT2A receptor expressed in HEK293T cells after 1 to […] by scintillation counting analysis. The experiment is classed as cell-based, HEK-293T.
The target in experiment [12] is T2, 5-hydroxytryptamine receptor 2A. The experiment is described as follows: Agonist activity at human 5-HT2A receptor expressed in HEK293 cells assessed as increase in calcium mobilization by FLIPR assay. The experiment is classed as functional, cell-based. For orientation: Calcium flux is commonly read through the fluorescence of an indicator in the cells.

By Ki is commonly meant a dissociation constant, usually derived from enzyme kinetics or from competition with a known ligand. What is called pKi is the Ki on a negative log10 scale, so that one unit is a factor of ten. High values mean a small Ki, low ones a large Ki. As usually defined, the IC50 is the concentration that gives 50% inhibition.

T1 sequence (P23975 whole entry): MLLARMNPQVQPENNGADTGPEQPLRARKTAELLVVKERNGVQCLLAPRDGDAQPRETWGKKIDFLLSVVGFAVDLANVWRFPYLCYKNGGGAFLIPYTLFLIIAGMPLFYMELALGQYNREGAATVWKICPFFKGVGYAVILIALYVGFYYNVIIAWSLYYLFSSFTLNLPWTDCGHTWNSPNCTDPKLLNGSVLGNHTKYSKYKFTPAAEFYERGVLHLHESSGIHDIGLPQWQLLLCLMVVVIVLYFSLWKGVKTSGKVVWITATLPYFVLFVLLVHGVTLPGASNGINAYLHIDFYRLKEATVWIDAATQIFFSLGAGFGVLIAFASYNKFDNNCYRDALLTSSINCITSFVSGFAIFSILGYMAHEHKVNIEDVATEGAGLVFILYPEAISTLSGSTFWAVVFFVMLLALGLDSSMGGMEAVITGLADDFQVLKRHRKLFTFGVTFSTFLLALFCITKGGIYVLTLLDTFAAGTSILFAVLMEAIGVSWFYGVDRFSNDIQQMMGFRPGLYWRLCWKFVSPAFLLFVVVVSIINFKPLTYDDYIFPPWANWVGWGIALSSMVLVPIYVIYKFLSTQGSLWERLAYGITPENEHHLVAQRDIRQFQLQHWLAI
T2 sequence (P28223 whole entry): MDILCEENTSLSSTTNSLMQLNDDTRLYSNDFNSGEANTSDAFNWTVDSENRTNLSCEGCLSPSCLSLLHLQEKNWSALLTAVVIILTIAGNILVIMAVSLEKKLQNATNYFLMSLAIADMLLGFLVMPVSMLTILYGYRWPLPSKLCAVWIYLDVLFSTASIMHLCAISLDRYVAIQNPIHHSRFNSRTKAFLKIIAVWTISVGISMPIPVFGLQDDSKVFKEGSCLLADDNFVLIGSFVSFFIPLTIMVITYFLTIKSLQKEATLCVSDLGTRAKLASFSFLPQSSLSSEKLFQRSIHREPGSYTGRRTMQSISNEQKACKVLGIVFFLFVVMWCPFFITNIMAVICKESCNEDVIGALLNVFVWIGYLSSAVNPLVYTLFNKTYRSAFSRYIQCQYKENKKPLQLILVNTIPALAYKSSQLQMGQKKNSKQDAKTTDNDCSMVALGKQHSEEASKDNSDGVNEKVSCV
Alpha-1A adrenergic receptor, sequence (P35348 whole entry): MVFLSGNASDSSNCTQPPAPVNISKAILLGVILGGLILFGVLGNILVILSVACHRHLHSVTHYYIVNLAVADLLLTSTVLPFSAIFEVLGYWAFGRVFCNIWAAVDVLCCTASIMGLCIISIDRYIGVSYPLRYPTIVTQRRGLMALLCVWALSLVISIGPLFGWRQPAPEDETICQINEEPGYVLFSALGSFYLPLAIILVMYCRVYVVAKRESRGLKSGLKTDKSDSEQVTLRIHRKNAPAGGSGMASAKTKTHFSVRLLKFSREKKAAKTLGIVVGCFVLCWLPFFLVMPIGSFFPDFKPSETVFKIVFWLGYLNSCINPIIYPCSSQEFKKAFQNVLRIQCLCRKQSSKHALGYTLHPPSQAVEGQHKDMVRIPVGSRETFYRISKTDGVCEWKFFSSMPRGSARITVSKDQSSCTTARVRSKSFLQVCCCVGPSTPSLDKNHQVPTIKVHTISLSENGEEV
Alpha-2B adrenergic receptor, sequence (P18089 whole entry): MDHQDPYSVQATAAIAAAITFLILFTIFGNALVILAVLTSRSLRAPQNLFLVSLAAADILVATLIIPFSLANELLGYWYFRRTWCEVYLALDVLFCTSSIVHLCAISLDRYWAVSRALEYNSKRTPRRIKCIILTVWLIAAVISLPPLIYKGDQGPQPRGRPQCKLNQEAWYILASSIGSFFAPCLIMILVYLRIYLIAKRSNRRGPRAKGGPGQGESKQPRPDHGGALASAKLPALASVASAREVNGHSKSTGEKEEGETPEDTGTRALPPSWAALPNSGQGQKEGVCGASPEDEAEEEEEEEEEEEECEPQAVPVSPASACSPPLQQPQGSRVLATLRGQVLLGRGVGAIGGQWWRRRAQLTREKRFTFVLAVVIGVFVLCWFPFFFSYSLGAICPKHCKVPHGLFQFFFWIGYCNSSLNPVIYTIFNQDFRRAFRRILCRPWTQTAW
D(2) dopamine receptor, sequence (P14416 whole entry): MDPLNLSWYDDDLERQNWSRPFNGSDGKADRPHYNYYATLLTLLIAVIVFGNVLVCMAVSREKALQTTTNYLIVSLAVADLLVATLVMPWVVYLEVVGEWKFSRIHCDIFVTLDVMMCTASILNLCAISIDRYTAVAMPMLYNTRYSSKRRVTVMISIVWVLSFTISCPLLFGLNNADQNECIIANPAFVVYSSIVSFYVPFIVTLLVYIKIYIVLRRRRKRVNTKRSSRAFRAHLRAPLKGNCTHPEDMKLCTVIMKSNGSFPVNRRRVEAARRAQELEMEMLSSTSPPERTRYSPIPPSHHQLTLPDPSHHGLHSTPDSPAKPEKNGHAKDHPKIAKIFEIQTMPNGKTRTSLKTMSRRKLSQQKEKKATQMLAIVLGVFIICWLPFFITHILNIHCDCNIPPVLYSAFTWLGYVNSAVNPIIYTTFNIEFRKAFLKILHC
D(3) dopamine receptor, sequence (P35462 whole entry): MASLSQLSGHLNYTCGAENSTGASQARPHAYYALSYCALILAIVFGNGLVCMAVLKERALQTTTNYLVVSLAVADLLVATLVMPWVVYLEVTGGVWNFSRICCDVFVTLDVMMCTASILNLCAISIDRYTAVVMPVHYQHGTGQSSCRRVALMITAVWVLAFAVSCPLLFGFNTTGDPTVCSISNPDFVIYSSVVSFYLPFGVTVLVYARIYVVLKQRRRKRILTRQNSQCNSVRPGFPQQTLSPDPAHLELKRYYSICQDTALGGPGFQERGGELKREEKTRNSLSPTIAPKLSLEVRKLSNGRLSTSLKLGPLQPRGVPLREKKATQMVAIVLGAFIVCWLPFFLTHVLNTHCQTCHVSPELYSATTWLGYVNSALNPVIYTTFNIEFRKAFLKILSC
Alpha-2C adrenergic receptor, sequence (P18825 whole entry): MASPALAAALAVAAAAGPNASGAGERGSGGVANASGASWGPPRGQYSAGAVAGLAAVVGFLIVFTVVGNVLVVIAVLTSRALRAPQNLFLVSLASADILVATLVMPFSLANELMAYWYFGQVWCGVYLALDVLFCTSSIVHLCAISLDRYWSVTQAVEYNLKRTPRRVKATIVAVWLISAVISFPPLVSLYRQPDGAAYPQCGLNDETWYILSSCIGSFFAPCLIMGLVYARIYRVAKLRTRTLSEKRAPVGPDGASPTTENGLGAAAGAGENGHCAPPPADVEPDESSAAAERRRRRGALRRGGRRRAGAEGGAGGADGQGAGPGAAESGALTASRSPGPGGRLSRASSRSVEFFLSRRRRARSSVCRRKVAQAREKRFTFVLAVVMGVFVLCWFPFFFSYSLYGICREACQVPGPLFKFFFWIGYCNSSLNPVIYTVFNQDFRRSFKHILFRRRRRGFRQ
5-hydroxytryptamine receptor 1B, sequence (P28222 whole entry): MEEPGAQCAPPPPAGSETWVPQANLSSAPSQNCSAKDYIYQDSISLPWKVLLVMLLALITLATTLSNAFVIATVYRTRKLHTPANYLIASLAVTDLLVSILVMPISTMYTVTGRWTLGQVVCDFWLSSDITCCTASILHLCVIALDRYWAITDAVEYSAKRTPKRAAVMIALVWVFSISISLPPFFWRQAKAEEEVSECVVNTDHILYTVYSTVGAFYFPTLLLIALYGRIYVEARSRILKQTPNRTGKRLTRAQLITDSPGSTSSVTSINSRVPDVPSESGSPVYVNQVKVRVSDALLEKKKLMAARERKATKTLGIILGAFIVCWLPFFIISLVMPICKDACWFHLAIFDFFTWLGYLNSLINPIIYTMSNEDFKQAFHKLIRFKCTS
Alpha-1B adrenergic receptor, sequence (P35368 whole entry): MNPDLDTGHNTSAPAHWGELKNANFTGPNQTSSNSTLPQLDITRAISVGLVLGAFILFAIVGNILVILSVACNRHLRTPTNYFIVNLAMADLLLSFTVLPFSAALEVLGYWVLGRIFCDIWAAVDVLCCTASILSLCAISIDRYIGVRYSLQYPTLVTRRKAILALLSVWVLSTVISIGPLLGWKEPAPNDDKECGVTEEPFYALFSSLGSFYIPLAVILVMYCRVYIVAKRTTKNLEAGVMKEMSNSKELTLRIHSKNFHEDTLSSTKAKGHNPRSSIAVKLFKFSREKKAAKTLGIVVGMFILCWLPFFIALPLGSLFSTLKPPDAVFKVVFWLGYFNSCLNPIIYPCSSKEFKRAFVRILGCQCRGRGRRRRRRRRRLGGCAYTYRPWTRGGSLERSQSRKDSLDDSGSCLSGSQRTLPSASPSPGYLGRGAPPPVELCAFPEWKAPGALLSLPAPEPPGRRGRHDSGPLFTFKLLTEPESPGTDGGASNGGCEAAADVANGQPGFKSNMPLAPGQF

In the case of `CC(N)Cc1c[nH]c2ccccc12` (centres undefined), the Ki in experiment [1] is 559 nM; in [2] it was greater than 10000 nM; in [3], greater than 10000 nM; in [4], greater than 10000 nM; in experiment [5], greater than 10000 nM; in [7], greater than 10000 nM. The Ki in [8] was greater than 10000 nM; in experiment [9], greater than 10000 nM; in [10], 642 nM. Also, the negative-log Ki (pKi) in [6] is on record as less than 5. Moreover, in [10], it took 3720 nM to reach half-maximal inhibition (IC50).

`C=CCN(CC=C)CCc1c[nH]c2ccc(OC)cc12`: in experiment [11], the Ki turned out to be 555 nM. Moreover, the EC50 in experiment [12] (read-out: EC50) was 2.8 nM; in [12] (read-out: pEC50 (converted)), 27.5 nM.

The values above are taken from ChEMBL document CHEMBL2390840, “An analysis of the synthetic tryptamines AMT and 5-MeO-DALT: emerging 'Novel Psychoactive Drugs'” (Bioorg Med Chem Lett, 2013).
